These results are taken from patent publication US9969771B2, “Tetrapeptide having effect of inhibiting VEGF-induced angiogenesis and use thereof” (AVIXGEN INC., priority 2015, dated 2018).

The subject of assay [1] is NO production in HUVECs. Kind of assay: NO production in HUVECs (DAF-FM diacetate). In kind it is cell-based, human. The conditions noted are these: peptide 0.15 nM, VEGF 10 ng/ml. As for the experimental part:
An NO amount produced in HUVECs was evaluated with DAF-FM diacetate. HUVECs were reacted with peptides (0.15 nM) and VEGF (10 ng/ml) for 4 hours, and incubated with DAF-FM diacetate (5 μM) in a CO2 constant temperature incubator, and the amount of NO produced in the cells was measured under a confocal microscope.

In assay [2] the test system is zebrafish. The assay can be described thus: Zebrafish angiogenesis assay. In kind it is in vivo. The conditions noted are these: zebrafish embryo. As for the experimental part: An adult zebrafish and an embryo were grown and maintained in a standard laboratory environment, and a zebrafish experiment was conducted according to the protocols approved by the animal ethics committee of Chungnam National University. To analyze angiogenesis, at 48 hours post fertilization (hpf), the embryo was anesthetized with tricaine (MS-222, 0.02%, embryo buffer), a peptide was administered, and FITC-dextran (2,000 kDa, Sigma) was further injected. A blood vessel image was obtained with a Leica DM5000B system at 72 hpf. As a probe for whole mount in situ hybridization, digoxigenin (DIG)-labeled RNA prepared by a cad5 (NM_001003983) gene was used. Meanwhile, a peptide was injected into the 18-hpf embryo collected at 25 hpf, fixed with 4% paraformaldehyde, washed with PBS (in 0.1% Tween20), and hybridized with DIG-labeled riboprobes (hybridization buffer). Subsequently, the resulting product was reacted with an alkaline phosphatase (AP)-conjugated anti-DIG antibody. Following reaction with an AP staining solution, a staining status was observed and visualized under a microscope (Leica, MZ-16).

Assay [3] has as its system HUVECs. The assay can be described thus: VEGF-induced HUVEC proliferation, [3H]-thymidine incorporation assay. Format: cell-based, human. As for the experimental part: Human umbilical vein endothelial cells (HUVECs) were cultured in M199 medium, and during experiments, the cells were always used at passages 2 to 7. Meanwhile, mouse melanoma cells (B16F1 and B16F10) and human colorectal tumor cells (HCT116) were cultured in RPMI media supplemented with 10% FBS, 1 mM sodium pyruvate, 10 mM 4-(2-hydroxyethyl)-1-piperazineethanesulfonic acid and 100 U/ml penicillin-streptomycin, and human multiple myeloma cells (IM-9 and RPMI 8226) were cultured in RPMI-1640 media. All of the cells were cultured at 37° C. with 5% CO2 in a humidified incubator.
Angiogenic activity was determined by measuring cell proliferation, migration and tube formation. HUVEC proliferation was analyzed by a [3H]-thymidine incorporation assay. The HUVECs were seeded in a 24-well plate coated with gelatin at a density of 2×10^4 cells/well. […] […] […] 3H-labeled polymer DNA was evaluated with a liquid scintillation counter.

The test system of assay [4] is HCT116 human colorectal tumor cells. Kind of assay: Human colorectal tumor (HCT116) xenograft model. In kind it is in vivo, nude mouse. As for the experimental part: 100 μl each of 2×10^6 B16F1 mouse melanoma cells and 1×10^7 HCT116 human colorectal tumor cells were subcutaneously injected into the left side of a C57BL/6J mouse and a nude mouse. After a tumor volume reached at least 50 to 70 mm3 (taking about 7 days), saline or RLYE (SEQ ID NO: 2) (0.5 or 1.0 mg/kg) was peritoneally injected daily into the mice. A tumor size was two-dimensionally measured with calipers. A tumor volume (mm3) was calculated by a formula of […]. Following homogenization of tumor tissue with PBS and centrifugation (at 12,000×g for 5 min), a hemoglobin-containing supernatant was extracted to be used in analysis with Drabkin's reagent (Sigma). A hemoglobin level was measured by a cyanmethemoglobin method, and the amount of hemoglobin per gram of the tumor was calculated.
Tumor tissue was fixed in 10% formalin, and inserted into paraffin. A slide was prepared from a tissue section, embedded in xylene to remove the paraffin, and rehydrated with 100%, 95%, 80% and 70% ethanol (EtOH) in s stepwise manner. Afterward, the slide was washed with deionized water multiple times at room temperature. To inhibit an intracellular peroxidase activity, the section was reacted in 0.3% hydrogen peroxide-containing methanol for 15 minutes, washed with PBS three times, reacted in 3% goat serum-containing PBS at room temperature for 2 hours, and reacted with a PECAM-1 antibody overnight at 4° C. The tissue section slide was washed with PBS three times, and reacted with a TRITC-conjugated secondary antibody for 1 hour. In addition, the tumor tissue section was also reacted with FITC-isolectin B4 ([…]; Vector Laboratories) for 1 hour. The tissue section was washed with PBS three times, and treated with a Permount solution to make a slide, followed by observation of tumor blood vessels under a fluorescence microscope.

Assay [5] addresses T1, VEGFR-2 (Homo sapiens, UniProt P35968). Kind of assay: VEGFR pull-down assay using biotin-labeled RLYE, VEGFR-2. The conditions noted are these: HUVEC lysate. In kind it is binding. Also noted: endogenous in cells; host or cells: HUVEC. As for the experimental part:
HUVECs were lysed in a pull-down buffer [50 mM Tris-HCl (pH 8.0), 150 mM sodium chloride, 1.0% NP-40, 0.5% sodium deoxycholate and 0.1% SDS]. A lysate ([…] of proteins) was reacted with biotin-labeled RLYE (SEQ ID NO: 2) (0.15 or 1.5 nM) for 1 hour, and reacted with streptavidin-agarose beads ([…]) at 4° C. for 1 hour. RLYE (SEQ ID NO: 2)-binding proteins were isolated from the cell lysate through centrifugation, washed, and then boiled for 10 minutes. The bead-binding proteins were isolated by SDS-PAGE, and immunoblotting was performed with an antibody with respect to VEGFR-2 or VEGFR-1.

In assay [6] the target is T1, VEGFR-2. Kind of assay: Western blot, VEGFR-2 phosphorylation in VEGF-A-treated HUVECs. Format: cell-based. Also noted: endogenous in cells; host or cells: HUVEC. As for the experimental part:
Cells were lyzed in RIPA buffer, and 50 μg of proteins were isolated by SDS-PAGE and then transferred to a PVDF membrane. The membrane was reacted with an antibody with respect to a target protein for 2 hours. The membrane was washed twice and reacted with a horseradish peroxidase-conjugated antibody, and then an amount of the target proteins was assessed with an enhanced chemiluminescence system.
On the technique in general: In western blotting, separated proteins are transferred to a membrane and probed.

Assay [7] deals with HUVECs. Kind of assay: Confocal microscopy of FITC-RLYE binding to HUVECs. Further details: species or system human. As for the experimental part:
HUVECs were incubated on a cover glass coated with 2% gelatin, and then incubated with FITC-RLYE (SEQ ID NO: 2) (100 ng/ml) after being treated with VEGF-A (10 ng/ml) for 30 minutes or not treated. The cells were fixed in 3.7% formaldehyde for 30 minutes, treated with 0.2% TritonX-100-containing PBS, and reacted with a 3% goat serum and 0.05% Tween-20-containing PBS blocking solution. The cells were reacted with a PECAM-1 antibody at room temperature for 2 hours, washed with PBS, and reacted with a TRITC-conjugated secondary antibody at room temperature for 90 minutes. Samples were observed under a confocal microscope.

Where [8] appears, read: 0.5 or 1.0 mg/kg per day peritoneally.

“Also recorded” adds a separate entry of the source. Where a SMILES comes first, the peptide text is derived from it.

T1 sequence (P35968 20-1356): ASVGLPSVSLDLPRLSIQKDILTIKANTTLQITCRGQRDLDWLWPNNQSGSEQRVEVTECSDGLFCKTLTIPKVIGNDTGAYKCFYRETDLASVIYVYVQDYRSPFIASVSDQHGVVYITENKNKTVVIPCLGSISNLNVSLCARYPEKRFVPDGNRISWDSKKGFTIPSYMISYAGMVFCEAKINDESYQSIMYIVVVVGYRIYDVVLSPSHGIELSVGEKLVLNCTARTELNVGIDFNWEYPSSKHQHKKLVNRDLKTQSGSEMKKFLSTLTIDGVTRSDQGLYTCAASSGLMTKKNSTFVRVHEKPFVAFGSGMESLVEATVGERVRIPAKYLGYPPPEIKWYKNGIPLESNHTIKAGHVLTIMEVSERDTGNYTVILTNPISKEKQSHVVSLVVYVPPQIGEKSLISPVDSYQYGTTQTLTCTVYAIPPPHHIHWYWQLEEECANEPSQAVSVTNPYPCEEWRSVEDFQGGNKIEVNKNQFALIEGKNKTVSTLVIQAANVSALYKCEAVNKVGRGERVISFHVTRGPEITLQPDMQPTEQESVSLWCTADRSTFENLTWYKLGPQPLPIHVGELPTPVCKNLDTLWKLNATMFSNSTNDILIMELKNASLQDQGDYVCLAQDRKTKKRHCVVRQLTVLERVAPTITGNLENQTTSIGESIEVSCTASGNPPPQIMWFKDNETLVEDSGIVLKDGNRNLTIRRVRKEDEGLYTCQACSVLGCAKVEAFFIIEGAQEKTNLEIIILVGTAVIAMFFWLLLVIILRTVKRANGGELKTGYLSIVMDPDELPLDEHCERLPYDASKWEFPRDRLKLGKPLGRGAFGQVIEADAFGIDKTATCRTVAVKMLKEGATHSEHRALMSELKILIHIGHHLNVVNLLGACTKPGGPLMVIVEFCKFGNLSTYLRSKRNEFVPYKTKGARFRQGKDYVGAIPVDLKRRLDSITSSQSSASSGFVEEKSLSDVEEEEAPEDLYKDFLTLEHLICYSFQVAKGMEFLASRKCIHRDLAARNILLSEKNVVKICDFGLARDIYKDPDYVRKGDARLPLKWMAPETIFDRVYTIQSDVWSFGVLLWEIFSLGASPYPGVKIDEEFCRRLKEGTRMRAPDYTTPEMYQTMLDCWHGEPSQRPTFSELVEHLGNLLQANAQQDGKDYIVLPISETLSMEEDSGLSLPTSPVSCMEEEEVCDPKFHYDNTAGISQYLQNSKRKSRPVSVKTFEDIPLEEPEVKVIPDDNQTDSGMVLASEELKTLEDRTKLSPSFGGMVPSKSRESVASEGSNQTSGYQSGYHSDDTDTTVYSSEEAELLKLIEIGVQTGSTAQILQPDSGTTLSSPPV

For `CC(C)C[C@H](NC(=O)[C@@H](N)CCCNC(=N)N)C(=O)N[C@@H](Cc1ccc(O)cc1)C(=O)N[C@@H](CCC(=O)O)C(=O)O` [RLYE] (H-RLYE-OH; N-terminus and C-terminus assumed), the “inhibition of VEGF-induced NO production” value in assay [1] was “effectively blocked; also recorded: effectively inhibited; also recorded: higher inhibitory effect than the control KLYD”. Moreover, in assay [2], the “formation of intersegmental vessels (ISV)” value is given as “obviously inhibited” and the “formation of subintestinal vessels (SIV)” value is “considerably inhibited”. The “inhibition of VEGF-induced HUVEC proliferation” value in assay [3] (VEGF 10 ng/ml, [3H]-thymidine incorporation) is listed as “effectively inhibited”. Further, in assay [3] (versus KLYD), the “IC50 lower than that of the control KLYD (HUVEC proliferation)” value was determined as 10 fold. In addition, the “invasion of HUVECs into tumor tissue (isolectin B4 / PECAM-1 immunostaining)” value in assay [4] was “decreased depending on the amount of treated RLYE”. Also, in assay [4] (setting [8]), the tumor growth result is recorded as “concentration-dependently inhibited” and the tumor size entry is reported as “significantly reduced”. Besides, the “decrease in hemoglobin content in tumor tissue” value in assay [4] (compared with a control) was found to be 41%. Further, in assay [5], the “binding to VEGFR-2 (pull-down)” value is on record as “binds to VEGFR-2”. In assay [6], the “phosphorylation of VEGFR-2” value was “inhibits”. Moreover, in assay [7] (pretreatment of VEGF-A), the “binding to HUVEC surface (confocal microscope)” value is listed as “effectively blocked”. Besides, the “binding to HUVEC surface (confocal microscope)” value in assay [7] (without VEGF-A pretreatment) is given as “binds to a HUVEC surface”.
